This experiment has as its target T1, interaction between TGFR (RI) and FKPB12 (Homo sapiens, UniProt P62942).
T1 construct: expressed in transfected cells; host or cells: 293A cells
As to the kind of experiment: Mammalian reverse two-hybrid system, GFP reporter, stable cell line (pCMV-tetOP-AD-RI-IRES-BD-FKBP12). Format: cell-based. The following applies: 293A cells; 1 μg/ml Dox, 48 hrs; FK506 100 nM, AG1478 2.5 μM; FIG. 2.

SMILES strings stand for the structures.

T1 sequence (P62942 whole entry): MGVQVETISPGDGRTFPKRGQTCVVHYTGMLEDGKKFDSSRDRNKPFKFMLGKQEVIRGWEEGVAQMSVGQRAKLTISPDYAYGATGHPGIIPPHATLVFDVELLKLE
Experimental: Green Fluorescence Protein (GFP). To directly assay the expression of GFP, cells were cultured in 96 or 384 well low fluorescence assay plates with 100 or 50 μl of DMEM medium. Dox and agents were added at concentrations described below. Following 48-hrs of treatment, the medium in each well was replaced with PBS. The intensity of GFP was directly measured at 485 mn excitation and 525 nm emission with a fluorescence multi-well plate reader (CytoFluor II, PerSeptive Biosystems or Wallac Victor V Stacker, Perkin Elmer).
The mammalian reverse two-hybrid system of the present invention was tested with this protein-protein interaction pair to evaluate if the effect of FK506 on disrupting the interaction can be detected. To achieve this, the cytoplasmic domain of the TGFR (RI) was fused with the transcriptional activation domain (AD) of VP16 and FKBP12 was fused with the Gal4 DNA binding domain (BD).
A stable cell line harboring the construct TetR-KRAB, GFP reporter construct, and the construct pCMV-tetOP-AD-RI-IRES-BD-FKBP12 was selected to evaluate the effect of drug molecule FK506 on the interaction between TGFR (RI) and FKPB12. The intensity of GFP expression was monitored following 48 hrs of treatment of the cells with the inducer Dox and the agent FK506.
Expression of the GFP reporter gene was evaluated following the treatment. […]

For the molecule `COc1cc2ncnc(Nc3cccc(Cl)c3)c2cc1OC` [AG1478], the “Dox induced GFP expression (GFP reporter gene)” value is listed as “no effect”.
